Like-named read-outs stand apart in the source and are kept apart here.
Key:
[1] = test system: AIDS virus (HIV-1, IIIb); type: cell-based; details: HIV-1 IIIb in H9 cells, p24 in culture supernatant by ELISA on the 6th day
Procedure: (§1) Samples of various concentrations (25 μl) are distributed into a 24-well microplate, immediately added with human T cells (H9 cell line, 1.2×10^5/ml) (1 ml), covered, and incubated at 37° C. for 1 h. Then, AIDS virus (HIV-1, IIIb, 100 TCID 50) (25 μl) is added to each well and thoroughly mixed, covered again, and incubated under the CO2 atmosphere at 37° C. for 3 days. On the fourth day, aliquots (200 μl) of the culture medium from each well are transferred into a fresh microplate. The growth medium (500 μl) is added to each well, and further incubated for 2 days.
(§2) On the 6th day, aliquots (90 μl) of the culture supernatant are withdrawn, and assayed the amount of p24, a constituent of HIV-1, by ELISA method using the anti-p24 antibody to assess the growth of said virus. Also, using the remaining cell culture suspension (100 μl), viable cells are counted by the MTT method. Experimental values are expressed as the ratios (%) to the negative control value (measured using the solvent to dissolve test compounds as the sample) to represent the anti-HIV activity and cytotoxicity. Then, for the unified representation of the anti-HIV activity and cytotoxicity, the concentrations of test compounds at their 50% values are obtained from the activity-concentration curves and the cytotoxicity-concentration, and represented as IC50 and CC50, respectively.

[2] = test system: human T cells (H9 cell line); assay: Cytotoxicity, viable cells counted by the MTT method; type: cell-based
Procedure: as §1, §2

| Molecule | IC50 [1] | CC50 [2] | CC50 ([2]; H9 cells, MTT method, 6th day, read-out: CC 50) |
| --- | --- | --- | --- |
| 1-[N-{5-Acetamido-3,5-dideoxy-2-O-methyl-4,7,8,9-tetra-O-(sodium oxysulfonyl)-D-glycero-β-D-galacto-2-nonulopyranosonyl}amino]-2,2-bis(docosyloxymethyl) propane [Example 59] | 1.4 µM | > 200 µM |  |
| 3-O-[Sodium{5-acetamido-3,5-dideoxy-4,7,8,9-tetra-O-(sodium oxysulfonyl)-D-glycero-α-D-galacto-2-nonulopyranosyl}onate]-1,2-di-O-tetradecyl-Sn-glycerol [Example 7] | 16 µM | > 200 µM |  |
| 3-S-[Sodium{5-acetamido-3,5-dideoxy-4,7,8,9-tetra-O-(sodium oxysulfonyl)-D-glycero-α-D-galacto-2-nonulopyranosyl}onate]-1,2-di-O-tetradecyl-Sn-thioglycerol [Example 14] | 15 µM | > 200 µM |  |
| CCCCCCCCCCOCC(COC1(C(=O)O)CC(OS(=O)(=O)O)C(NC(C)=O)C(C(OS(=O)(=O)O)C(COS(=O)(=O)O)OS(=O)(=O)O)O1)OCCCCCCCCCC [Example 5, 3-O-[Sodium{5-acetamido-3,5-dideoxy-4,7,8,9-tetra-O-(sodiumoxysulfonyl)-D-glycero-α-D-galacto-2-nonulopyranosyl}onate]-1,2-di-O-decyl-Sn-glycerol] | 46 µM | > 200 µM |  |
| CCCCCCCCCCOCC(COC1(C(=O)O)CC(OS(=O)(=O)O)C(NC(C)=O)C(C(OS(=O)(=O)O)C(COS(=O)(=O)O)OS(=O)(=O)O)O1)OCCCCCCCCCC [Example 6, 3-O-[Sodium{5-acetamido-3,5-dideoxy4,7,8,9-tetra-O-(sodiumoxysulfonyl)-D-glycero-β-D-galacto-2-nonulopyranosyl}onate]-1,2-di-O-decyl-Sn-glycerol] | 50 µM |  | > 200 µM |
| CCCCCCCCCCCCCCOCC(COC1(C(=O)O)CC(OS(=O)(=O)O)C(NC(C)=O)C(C(OS(=O)(=O)O)C(COS(=O)(=O)O)OS(=O)(=O)O)O1)OCCCCCCCCCCCCCC [Example 8, 3-O-[Sodium{5-acetamido-3,5-dideoxy-4,7,8,9-tetra-O-(sodiumoxysulfonyl)-D-glycerol-β-D-galacto-2-nonulopyranosyl}ornate]-1,2-di-O-tetradecyl-Sn-glycerol] | 15 µM | > 200 µM |  |
| CCCCCCCCCCCCCCCCCCOCC(COC1(C(=O)O)CC(OS(=O)(=O)O)C(NC(C)=O)C(C(OS(=O)(=O)O)C(COS(=O)(=O)O)OS(=O)(=O)O)O1)OCCCCCCCCCCCCCCCCCC [Example 9, 3-O-[Sodium{5-acetamido-3,5-dideoxy-4,7,8,9-tetra-O-(sodiumoxysulfonyl)-D-glycerol-α-D-galacto-2-nonulopyranosyl)onate]-1,2-di-O-octadecyl-Sn-glycerol] | 3.8 µM | > 200 µM |  |
| CCCCCCCCCCCCCCCCCCOCC(COC1(C(=O)O)CC(OS(=O)(=O)O)C(NC(C)=O)C(C(OS(=O)(=O)O)C(COS(=O)(=O)O)OS(=O)(=O)O)O1)OS(=O)(=O)O [Example 10, 3-O-[Sodium{5-acetamido-3,5-dideoxy-4,7,8,9-tetra-O-(sodiumoxysulfonyl)-D-glycero-α-D-galacto-2-nonulopyranosyl}onate]-2-O-(sodiumoxysulfonyl)-1-O-octadecyl-Sn-glycerol] | 30 µM | > 200 µM |  |
| CCCCCCCCCCCCCCCCCCOC[C@H](CO[C@@]1(C(=O)O)C[C@H](OS(=O)(=O)O)[C@@H](NC(C)=O)[C@H]([C@H](OS(=O)(=O)O)[C@@H](COS(=O)(=O)O)OS(=O)(=O)O)O1)OS(=O)(=O)O [Example 11, 3-O-[Sodium{5-acetamido-3,5-dideoxy4,7,8,9-tetra-O-(sodiumoxysulfonyl)-D-glycero-β-D-galacto-2-nonulopyranosyl}onate]-2-O-(sodiumoxysulfonyl)-1-O-octadecyl-Sn-glycerol] | 13 µM | 200 µM |  |
| CCCCCCCCCCCCCCCCCCCCOCC(COC1(C(=O)O)CC(OS(=O)(=O)O)C(NC(C)=O)C(C(OS(=O)(=O)O)C(COS(=O)(=O)O)OS(=O)(=O)O)O1)OCCCCCCCCCCCCCCCCCCCC [Example 17, 3-O-[Sodium{5-acetamido-3,5-dideoxy-4,7,8,9-tetra-O-(sodiumoxysulfonyl)-D-glycero-α-D-galacto-2-nonulopyranosyl)onate]-1,2-di-O-eicosyl-Sn-glycerol] | 2.5 µM | > 20 µM |  |
| CCCCCCCCCCCCCCCCCCCCCCCCOCC(COC1(C(=O)O)CC(OS(=O)(=O)O)C(NC(C)=O)C(C(OS(=O)(=O)O)C(COS(=O)(=O)O)OS(=O)(=O)O)O1)OCCCCCCCCCCCCCCCCCCCCCCCC [Example 20, 3-O-[Sodium{5-acetamido-3,5-dideoxy-4,7,8,9-tetra-O-(sodiumoxysulfonyl)-D-glycero-α-D-galacto-2-nonulopyranosyl}onate]-1,2-di-O-tetracosyl-Sn-glycerol] | 1.2 µM | > 20 µM |  |
| CC(=O)N[C@H]1[C@H]([C@H](OS(=O)(=O)O)[C@@H](COS(=O)(=O)O)OS(=O)(=O)O)O[C@@](O[C@H]2CC[C@@]3(C)C(=CC[C@H]4[C@@H]5CC[C@H]([C@H](C)CCCC(C)C)[C@@]5(C)CC[C@@H]43)C2)(C(=O)O)C[C@@H]1OS(=O)(=O)O [Example 24, 3β-[Sodium{5-acetamido-3,5-dideoxy-4,7,8,9-tetra-O-(sodiumoxysulfonyl)-D-glycero-α-D-galacto-2-nonulopyranosyl}onate]-5-cholestene] | 34 µM | > 200 µM |  |
| CCCCCCCC/C=C\CCCCCCCCOC1(C(=O)O)CC(OS(=O)(=O)O)C(NC(C)=O)C(C(OS(=O)(=O)O)C(COS(=O)(=O)O)OS(=O)(=O)O)O1 [Example 25, Sodium[oleyl 5-acetamido-3,5-dideoxy-4,7,8,9-tetra-O-(sodiumoxysulfonyl)-D-glycero-α-D-galacto-2-nonulopyranosid]onate] | 100 µM | > 200 µM |  |
| CCCCCCCCCCCCCCCCCCO[C@]1(C(=O)O)C[C@H](OS(=O)(=O)O)[C@@H](NC(C)=O)[C@H]([C@H](OS(=O)(=O)O)[C@@H](COS(=O)(=O)O)OS(=O)(=O)O)O1 [Example 26, Sodium[octadecyl 5-acetamido-3,5-dideoxy-4,7,8,9-tetra-O-(sodiumoxysulfonyl)-D-glycero-α-D-galacto-2-nonulopyranosid)onate] | 100 µM | > 200 µM |  |
| CCCCCCCCCCCCCCCCCCCCOCC(C)(COCCCCCCCCCCCCCCCCCCCC)CO[C@]1(C(=O)O)C[C@H](OS(=O)(=O)O)[C@@H](NC(C)=O)[C@H]([C@H](OS(=O)(=O)O)[C@@H](COS(=O)(=O)O)OS(=O)(=O)O)O1 [Example 32, Sodium[2,2-bis(eicosyloxymethyl)propyl 5-acetamido-3,5-dideoxy-4,7,8,9-tetra-O-(sodiumoxysulfonyl)-D-glycero-α-D-galacto-2-nonulopyranosid)onate] | 2.5 µM | > 200 µM |  |
| CCCCCCCCCCCCCCCCCCCCCCOc1cc(OCCCCCCCCCCCCCCCCCCCCCC)cc(O[C@@]2(C(=O)O)C[C@H](OS(=O)(=O)O)[C@@H](NC(C)=O)[C@H]([C@H](OS(=O)(=O)O)[C@@H](COS(=O)(=O)O)OS(=O)(=O)O)O2)c1 [Example 35, Sodium[3,5-Didocosyloxyphenyl-5-acetamido-3,5-dideoxy-4,7,8,9-tetra-O-(sodiumoxysulfonyl)-D-glycero-β-D-galacto-2-nonulopyranosid)onate] | 90 µM | > 20 µM |  |

From US6835720B2, “Compounds having antiviral activity” (Nissin Food Products Co., Ltd., priority 1996, dated 2004)
